The target in data set [1] is hERG potassium channel (Homo sapiens (Human), UniProt Q12809). Nature of the data set: hERG inhibition, automated planar patch-clamp in hERG-expressing CHO cells. Conditions: read-out: Test Example 5 hERG IC50; whole-cell patch clamp, room temperature. For orientation: Block of hERG is tested as a sign of cardiac risk.
Data set [2] deals with T1, BACE1 (Homo sapiens (Human), UniProt P56817). Nature of the data set: Measurement of Aβ production inhibition in cell (SK-N-BE(2) neuroblastoma cells, Aβ40 ELISA). Conditions: Test Example 3 IC50, Aβ40 production, SK-N-BE(2) cells, 6 hours. (In general: In an ELISA, binding on a coated surface is turned into a signal by an enzyme label.)
Target sequence in this assay (P56817 46-501): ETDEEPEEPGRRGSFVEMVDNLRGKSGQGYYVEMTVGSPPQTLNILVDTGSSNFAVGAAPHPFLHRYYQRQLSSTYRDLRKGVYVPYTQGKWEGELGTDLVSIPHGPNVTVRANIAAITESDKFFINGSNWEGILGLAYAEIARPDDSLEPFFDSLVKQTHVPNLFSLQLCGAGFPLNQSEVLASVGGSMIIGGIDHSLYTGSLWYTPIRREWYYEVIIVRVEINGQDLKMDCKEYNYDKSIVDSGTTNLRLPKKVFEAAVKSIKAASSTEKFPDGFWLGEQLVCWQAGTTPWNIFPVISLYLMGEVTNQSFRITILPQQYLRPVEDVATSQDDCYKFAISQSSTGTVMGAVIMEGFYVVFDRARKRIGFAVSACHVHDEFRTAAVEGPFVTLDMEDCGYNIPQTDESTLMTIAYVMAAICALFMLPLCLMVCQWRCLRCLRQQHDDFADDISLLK
Protocol: The potency of compounds against BACE1 activity was determined in a cellular assay of Aβ production. […] Test compounds were dissolved in dimethyl sulfoxide and diluted with dimethyl sulfoxide and put into RPMI1640/5% FBS/penicillin-streptomycin media (final dimethyl sulfoxide concentration is 0.5%). […] CellTiter-Glo Substrate was dissolved into CellTiter-Glo Buffer and added to the plates in 95 μL/well. After shaking the plates for 2 minutes, the whole sample was transferred into a white 96-well plate and luminescence was measured for ATP quantification as the cell viability. Aβ concentration measured by ELISA was normalized by the viability of the corresponding cells.
The target in data set [3] is T1, BACE1. The experiment in a line: Measurement of BACE1 inhibition by fluorescence resonance energy transfer (FRET), MCA substrate. As to conditions: FRET; for IC50: read-out: Test Example 1 IC50, MCA-SEVNLDAEFK(DNP)-NH2 substrate, pH 4.4; for Ki: read-out: Test Example 1 BACE1 MCA Ki, MCA substrate.
Target sequence in this assay (P56817 75-416): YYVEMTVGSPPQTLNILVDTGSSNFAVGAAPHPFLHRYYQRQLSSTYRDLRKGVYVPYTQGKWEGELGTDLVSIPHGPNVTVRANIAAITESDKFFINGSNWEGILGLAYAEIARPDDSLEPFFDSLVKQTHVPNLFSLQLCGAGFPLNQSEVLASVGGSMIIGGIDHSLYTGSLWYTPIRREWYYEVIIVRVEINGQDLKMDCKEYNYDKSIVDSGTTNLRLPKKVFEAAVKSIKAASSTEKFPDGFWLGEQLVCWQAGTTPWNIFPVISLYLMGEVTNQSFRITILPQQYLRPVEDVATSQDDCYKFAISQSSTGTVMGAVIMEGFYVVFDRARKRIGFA

Structures can show the parent of a compound that is named as a salt. A value given as a limit tells only on which side of the number the result lay.

hERG potassium channel, sequence (Q12809 whole entry): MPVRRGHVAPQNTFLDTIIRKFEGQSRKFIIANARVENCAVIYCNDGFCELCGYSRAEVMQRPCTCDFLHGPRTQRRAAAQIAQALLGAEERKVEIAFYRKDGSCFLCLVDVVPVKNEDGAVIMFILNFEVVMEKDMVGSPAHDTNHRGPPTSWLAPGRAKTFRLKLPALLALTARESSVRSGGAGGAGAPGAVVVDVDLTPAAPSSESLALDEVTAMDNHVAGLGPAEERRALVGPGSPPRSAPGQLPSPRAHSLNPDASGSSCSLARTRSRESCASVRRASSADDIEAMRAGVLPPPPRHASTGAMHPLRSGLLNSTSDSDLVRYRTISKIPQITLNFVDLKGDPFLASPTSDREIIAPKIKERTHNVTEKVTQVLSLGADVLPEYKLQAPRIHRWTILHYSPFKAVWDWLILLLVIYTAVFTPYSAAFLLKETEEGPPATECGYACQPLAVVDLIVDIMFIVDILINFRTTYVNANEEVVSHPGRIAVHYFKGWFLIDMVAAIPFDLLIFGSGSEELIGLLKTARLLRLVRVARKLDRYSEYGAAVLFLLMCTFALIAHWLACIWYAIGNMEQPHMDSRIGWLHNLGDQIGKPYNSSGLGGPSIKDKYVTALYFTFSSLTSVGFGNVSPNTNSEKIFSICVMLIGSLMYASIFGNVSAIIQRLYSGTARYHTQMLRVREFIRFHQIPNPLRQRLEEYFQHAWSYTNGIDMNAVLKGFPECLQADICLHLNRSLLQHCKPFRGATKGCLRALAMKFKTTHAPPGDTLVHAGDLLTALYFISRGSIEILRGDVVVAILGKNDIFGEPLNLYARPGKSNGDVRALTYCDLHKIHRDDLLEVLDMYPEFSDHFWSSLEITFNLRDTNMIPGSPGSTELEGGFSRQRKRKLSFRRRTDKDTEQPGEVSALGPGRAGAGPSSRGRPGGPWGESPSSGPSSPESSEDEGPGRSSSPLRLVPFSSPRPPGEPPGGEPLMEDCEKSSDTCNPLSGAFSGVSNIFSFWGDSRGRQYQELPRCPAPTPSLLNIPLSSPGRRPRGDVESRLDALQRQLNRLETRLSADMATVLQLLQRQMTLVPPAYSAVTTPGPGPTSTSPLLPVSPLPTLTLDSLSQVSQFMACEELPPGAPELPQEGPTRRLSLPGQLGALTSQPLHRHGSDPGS

With `NC1=NC2(CO1)c1cc(-c3cncnc3)ccc1OCC21CC(F)(F)C1` (stereo not shown) [RP 208], the IC50 in data set [1] is above 10 µM; in data set [2], 6.1 µM; in data set [3] it was 7.76 µM.
The like results for `NC1=NC2(CO1)c1cc(-c3cncnc3)ccc1OC1(CCCC1)C21COC1` (stereo not shown) [RP 85] were, in that order, above 10 µM, 0.077 µM and 0.319 µM.
With `NC1=NC2(CO1)c1cc(-c3cncnc3)c(F)cc1OCC21CC1` (stereo not shown) [RP 102], the results for the IC50 in data set [1], in data set [2] and in data set [3] were above 10 µM, 0.24 µM and 1.61 µM, respectively.
Regarding `CCOc1cncc(-c2ccc3c(c2)C2(COC(N)=N2)C2(CC2)CO3)c1` (stereo not shown) [RP 106], the IC50 in data set [1] amounted to 5.75 µM; in data set [2], 0.16 µM; in data set [3], 1.83 µM.
Consider `CC#Cc1cncc(-c2ccc3c(c2)C2(COC(N)=N2)C2(CC2)CO3)c1` (stereo not shown) [RP 111], for which the results for the IC50 in data set [1], in data set [2] and in data set [3] were 1.98 µM, 0.14 µM and 0.287 µM, respectively. In addition, the inhibition constant Ki in data set [3] was found to be 0.252 µM.
For `NC1=NC2(COC1)c1cc(-c3cncnc3)ccc1OCC21CC1` (stereo not shown) [RP 215, 6′-(pyrimidin-5-yl)-6″H-dispiro[cyclopropane-1,3′-chromene-4′,3″-[1,4]oxazin]-5″-amine], the results for the half-maximal inhibitory concentration (IC50) in data set [1], in data set [2] and in data set [3] were above 10 µM, 0.24 µM and 1.21 µM, respectively.
The like results for `NC1=NC2(CO1)c1cc(-c3cncnc3)ccc1OCC21CC1` (stereo not shown) [RP 100] were, in that order, above 10 µM, 0.25 µM and 2.62 µM.
The like results for `NC1=NC2(CO1)c1cc(-c3cccnc3)ccc1OC1(CCC1)C21COC1` (stereo not shown) [RP 209] were, in that order, above 10 µM, 0.83 µM and 2 µM.
The like results for `NC1=NC2(CO1)c1cc(Br)ccc1OC(Cc1ccccc1)C21COC1` (single isomer, unassigned) [RP 15b] were, in that order, 7.93 µM, 0.44 µM and 1.01 µM.
With `CC#Cc1cncc(-c2ccc3c(c2)C2(COC(N)=N2)C2(COC2)C(CC)O3)c1` (stereo not shown) [RP 86], the IC50 turned out to be 7.94 µM in data set [1], 0.058 µM in data set [2] and 0.143 µM in data set [3]. The inhibitory constant (Ki) in data set [3] amounted to 0.107 µM.
Consider `NC1=NC2(CO1)c1cc(-c3cccnc3F)ccc1OC1(CCC1)C21COC1` (stereo not shown) [RP 71], for which the half-inhibitory concentration (IC50) in data set [1] was above 10 µM; in data set [2], 0.11 µM; in data set [3], 1.08 µM.
As to `NC1=NC2(CO1)c1cc(-c3cncc(C(F)F)c3)ccc1OC1(CCC1)C21COC1` (stereo not shown) [RP 118], the IC50 is above 10 µM in data set [1], 0.99 µM in data set [2] and 1.81 µM in data set [3].
The like results for `NC1=NC2(CO1)c1cc(-c3cncnc3)ccc1OC1(CCC1)C21COC1` (stereo not shown) [RP 5] were, in that order, above 10 µM, 0.59 µM and 1.56 µM.
With `NC1=NC2(c3cc(-c4cncnc4)ccc3OCC23CC3)c2cccc(F)c21` (stereo not shown) [RP 199], the IC50 in data set [1] was 4.25 µM; in data set [2], 0.24 µM; in data set [3] it was 0.736 µM.
The like results for `COc1cncc(-c2ccc3c(c2)C2(COC(N)=N2)C2(CC2)CO3)c1` (stereo not shown) [RP 105] were, in that order, 7.9 µM, 0.34 µM and 2.94 µM.
The like results for `NC1=NC2(CO1)c1cc(-c3cncc(OCC(F)F)c3)ccc1OCC21CC1` (stereo not shown) [RP 59] were, in that order, 6.9 µM, 0.076 µM and 1.11 µM.
The like results for `CC1(C)Oc2ccc(Br)cc2C2(COC(N)=N2)C12COC2` (stereo not shown) [RP 6, 6′-bromo-2′,2′-dimethyldispiro[1,3-oxazole-4,4′-chromene-3′,3″-oxetan]-2-amine] were, in that order, above 10 µM, 3.9 µM and 11.7 µM.
Turning to `CC#Cc1cncc(-c2ccc3c(c2)C2(COC(N)=N2)C2(COC2)C(CCC)O3)c1` (stereo not shown) [RP 92], the figures for the IC50 in data set [1], in data set [2] and in data set [3] were 5.34 µM, 0.037 µM and 0.124 µM, respectively. The inhibition constant (Ki) in data set [3] was 0.0879 µM.
Turning to `NC1=NC2(CO1)c1cc(-c3cncnc3)ccc1OC(CC1CC1)C21COC1` (stereo not shown) [RP 204], the figures for the IC50 in data set [1], in data set [2] and in data set [3] were above 10 µM, 0.24 µM and 0.388 µM, respectively.
The like results for `COc1cccnc1Nc1ccc2c(c1)C1(COC(N)=N1)C1(COC1)C1(CCC1)O2` (stereo not shown) [RP 45] were, in that order, above 10 µM, 0.057 µM and 1.04 µM.
The like results for `CC1(C)Oc2ccc(-c3cncnc3)cc2C2(CSC(N)=N2)C12COC2` (stereo not shown) [RP 54, 2′,2′-dimethyl-6′-(pyrimidin-5-yl)dispiro[oxetane-3,3′-chromene-4′,4″-[1,3]thiazol]-2″-amine hydrochloride] were, in that order, above 10 µM, 0.079 µM and 0.406 µM.
The like results for `CC#Cc1cncc(-c2ccc3c(c2)C2(COC(N)=N2)C2(CC2)CO3)c1` (single isomer, unassigned) [RP 52a, 6′-[5-(prop-1-yn-1-yl)pyridin-3-yl]dispiro[cyclopropane-1,3′-chromene-4′,4″-[1,3]oxazol]-2″-amine] were, in that order, 4.83 µM, 0.075 µM and 0.161 µM.
In the case of `CCc1cncc(-c2ccc3c(c2)C2(COC(N)=N2)C2(CC2)CO3)c1` (stereo not shown) [RP 63], the figures for the half-inhibitory concentration (IC50) in data set [1], in data set [2] and in data set [3] were 4.48 µM, 3.3 µM and 7.9 µM, respectively.
Take `CC(C)Cc1ccc2c(c1)C1(COC(N)=N1)C1(COC1)C1(CCC1)O2` (stereo not shown) [RP 46, 6′-isobutyltrispiro[cyclobutane-1,2′-chromene-4′,4″-[1,3]oxazole-3′,3′″-oxetan]-2″-amine]: the 50% inhibitory concentration (IC50) in data set [1] was above 10 µM; in data set [2] it was 1.4 µM; in data set [3] it was 8.94 µM.
The like results for `NC1=NC2(CO1)c1cc(Br)ccc1OC(Cc1ccccc1)C21COC1` (single isomer, unassigned) [RP 15a] were, in that order, above 10 µM, 1.1 µM and 1.72 µM.
The like results for `NC1=NC2(CO1)c1cc(-c3cncnc3)ccc1OC(C1CC1)C21COC1` (stereo not shown) [RP 88] were, in that order, above 10 µM, 1.4 µM and 2.51 µM.
The like results for `NC1=NC2(CO1)c1cc(Nc3ncccc3Cl)ccc1OCC21COC1` (stereo not shown) [RP 43, 6′-(3-chloropyridin-2-yl)aminodispiro[1,3-oxazole-4,4′-chromene-3′,3″-oxetane]-2-amine] were, in that order, above 10 µM, 1.4 µM and 1.96 µM.
Take `NC1=NC2(CO1)c1cc(-c3cncnc3)ccc1OC(CC1CC1)C21COC1` (stereo not shown) [RP 207]: the IC50 is above 10 µM in data set [1], 0.16 µM in data set [2] and 0.46 µM in data set [3].
As to `NC1=NC2(CO1)c1cc(-c3cncnc3)ccc1OC(Cc1ccccc1)C21COC1` (stereo not shown) [RP 200], the IC50 was above 10 µM in data set [1], 0.026 µM in data set [2] and 0.128 µM in data set [3]. In addition, the Ki in data set [3] was found to be 0.0921 µM.
Consider `COCc1cnn(-c2ccc3c(c2)C2(COC(N)=N2)C2(COC2)C2(CCC2)O3)c1` (stereo not shown) [RP 4], for which the 50% inhibitory concentration (IC50) in data set [1] is above 10 µM; in data set [2] it was 7.2 µM; in data set [3] it was 12.6 µM.
The like results for `CCCC1Oc2ccc(-c3cncnc3)cc2C2(COC(N)=N2)C12COC2` (stereo not shown) [RP 91] were, in that order, above 10 µM, 0.34 µM and 0.656 µM.

In general, IC50 refers to the concentration at which inhibition is half-maximal. As a reminder, the Ki is the equilibrium dissociation constant of an inhibitor or competing ligand from its target.
